Here are results for 1 molecule from patent publication US10143686B2, “Oxidosqualene cyclase as a protein target for anticancer therapeutics” (The Curators of the University of Missouri, priority 2010, dated 2018).

Where a name gives a salt, the structure may show the parent alone. Read-outs that look alike come from different tables or passages of the source.

Common to all, as to format: cell-based
Assay [1] has as its system DU145 prostate cancer cells. The assay is described as follows: SRB cell viability assay, DU145. Particulars: Homo sapiens. As for the experimental part: (§1) The effect of OSC inhibition was evaluated in additional cancer cell lines as well. Cancer cell lines may be purchased from ATCC (Manassas, Va.). The SRB assay has been employed for determination of the inhibitory effects of RO 48-8071 on growth of different cancer cells. Cells were seeded into 96-well plates and incubated overnight at 37° C. with 5% CO2. The culture medium was removed after 24 hours, and cells were washed with DMEM/F12 medium and then treated with various concentrations of RO 48-8071 in 5% FBS culture medium for 24 and 48 hours. Surviving or adherent cells were fixed in situ by withdrawing the growth medium, adding 100 μl PBS and 100 μl 50% trichloroacetic acid and then incubating at 4° C. for one hour. Cells were washed with ice-cold water, dried at room temperature (RT), and then stained with 50 μl 4% SRB for eight minutes at RT. Unbound dye was removed by washing with cold 1% acetic acid for five times, and plates were dried at RT. Bound stain was solubilized with 150 μl 10 mM Tris buffer and absorbance of samples was read at 520 nm with a SpecTRA MAX 190 microplate reader (Molecular Devices, Sunnyvale, Calif.). Six wells were used for each concentration, and each experiment was performed two to three times.
Effect of RO 48-8071 on prostate cancer cell line DU145 viability. […] The culture mediums employed 10% FBS EMEM for culture and 5% FBS EMEM for treatment.

For assay [2], the system named is NCI-H23 lung cancer cells. The assay can be described thus: SRB cell viability assay, NCI-H23. Particulars: Homo sapiens. As for the experimental part: as §1
Effect of RO 48-8071 on lung cancer cell line H23 viability. […] The culture mediums employed 10% FBS RPMI-1640 for culture and 5% FBS RPMI-1640 for treatment.

Assay [3] concerns OV-CAR-3 ovarian cancer cells. The assay is described as follows: SRB cell viability assay, OV-CAR-3. Particulars: Homo sapiens, OVCAR-3, OV-CAR-3, Ovary. As for the experimental part:
as §1
Effect of RO 48-8071 on ovarian cancer cell line OVCAR-3 viability. […]

Assay [4] relates to BxPC-3 pancreatic cancer cells. The assay is described as follows: SRB cell viability assay, BxPC-3. Particulars: Homo sapiens, BxPC-3, Pancreas. As for the experimental part: as §1
Effect of RO 48-8071 on pancreatic cancer cell line BxPC-3 viability. […]

In assay [5] the test system is BT-474, MCF-7, BT-20 and MDA-231 human breast cancer cells. The assay is described as follows: Annexin V / PI apoptosis assay, breast cancer cells. Particulars: 24 hours. The source says:
(§2) Apoptosis is a normal physiologic process which occurs during embryonic development as well as in maintenance of tissue homeostasis. The apoptotic program is characterized by certain morphologic features, including loss of plasma membrane asymmetry and attachment, condensation of the cytoplasm and nucleus, and internucleosomal cleavage of DNA. […]. In apoptotic cells, the membrane phospholipid phosphatidylserine (PS) is translocated from the inner to the outer leaflet of the plasma membrane, thereby exposing PS to the external cellular environment. Annexin V is a 35-36 kDa Ca2+ dependent phospholipid-binding protein that has a high affinity for PS, and binds to cells with exposed PS. Annexin V may be conjugated to fluorochromes including FITC. […]
(§3) FITC Annexin V staining precedes the loss of membrane integrity which accompanies the latest stages of cell death resulting from either apoptotic or necrotic processes. […] However, when apoptosis is measured over time, cells can be often tracked from FITC Annexin V and PI negative (viable, or no measurable apoptosis), to FITC Annexin V positive and PI negative (early apoptosis, membrane integrity is present) and finally to FITC Annexin V and PI positive (end stage apoptosis and death). […]

In assay [6] the test system is PC-3 and DU-145 human prostate cancer cells. The assay is described as follows: Annexin V / PI apoptosis assay, prostate cancer cells. The conditions noted are these: 24 hours.
Description: as §2, §3

The mark [7] stands for this setting: 24 hours, read-out: IC50 (μM) (24 hours).
[8] abbreviates: 48 hours, read-out: IC50 (μM) (48 hours).

Turning to `C=CCN(C)CCCCCCOc1ccc(C(=O)c2ccc(Br)cc2)c(F)c1` [Ro 48-8071, 4′-[6-(Allylmethylamino)hexyloxy]-4-bromo-2′-fluorobenzophenone fumarate], the IC50 in assay [1] (DU-145, 24 hours, read-out: IC50 (μM) (24 hours)) was determined as 13.5 ± 0.895 µM; in assay [1] (DU-145, 48 hours, read-out: IC50 (μM) (48 hours)), 8.61 ± 0.455 µM; in assay [2] (setting [7]), 14.2 ± 1.28 µM; in assay [2] (setting [8]), 10.3 ± 0.303 µM; in assay [3] (setting [7]), 20.5 ± 0.325 µM; in assay [3] (setting [8]), 11.3 ± 0.33 µM. The results for the IC50 in assay [4] (setting [7]) and in assay [4] (setting [8]) were 11.4 ± 0.621 µM and 7.11 ± 0.102 µM, respectively. Besides, the “apoptosis and cell death (annexin V / PI positive cells)” value in assay [5] was “Induces Apoptosis and Cell Death”; in assay [6], “Induces Apoptosis and Cell Death”.
